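Where inhibition never reached the appropriate level, the endpoint shown equals the highest concentration tested. Otherwise, values were interpolated linearly from a five-concentration, 48-hour dose response in 96-well plates. GI50 marks 50% less growth. TGI: total growth inhibition.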
Legend:
Assay in all cases: growth of human tumour cells (NCI), 48 h
[1] = test system: NCI-H226 lung
[2] = test system: SK-MEL-2 melanoma
[3] = test system: HT29 colon
[4] = test system: KM12 colon
[5] = test system: SN12C renal
[6] = test system: SK-MEL-5 melanoma
[7] = test system: XF 498 CNS
[8] = test system: U251 CNS
[9] = test system: OVCAR-8 ovarian
[10] = test system: RXF 393 renal
[11] = test system: HCT-15 colon
[12] = test system: HL-60(TB) leukemia
[13] = test system: SNB-78 CNS
[14] = test system: HOP-92 NSCLC
[15] = test system: DMS 273 small cell lung
[16] = test system: KM20L2 colon
[17] = test system: M14 melanoma
[18] = test system: RXF-631 renal
[19] = test system: HOP-18 NSCLC
[20] = test system: K-562 leukemia
[21] = test system: HCC-2998 colon
[22] = test system: LOX IMVI melanoma
[23] = test system: CCRF-CEM leukemia
[24] = test system: OVCAR-3 ovarian
[25] = test system: A549 NSCLC
[26] = test system: ACHN renal
[27] = test system: COLO 205 colon
[28] = test system: OVCAR-4 ovarian
[29] = test system: LXFL 529 NSCLC
[30] = test system: TK-10 renal
[31] = test system: SK-OV-3 ovarian
[32] = test system: EKVX NSCLC
[33] = test system: HOP-62 NSCLC
[34] = test system: UACC-62 melanoma
[35] = test system: M19-MEL melanoma
[36] = test system: DLD-1 colon
[37] = test system: IGROV1 ovarian
[38] = test system: RPMI-8226 leukemia
[39] = test system: NCI-H460 lung
[40] = test system: SNB-19 CNS
[41] = test system: DMS 114 small cell lung
[42] = test system: OVCAR-5 ovarian
[43] = test system: UACC-257 melanoma
[44] = test system: UO-31 renal
[45] = test system: CAKI-1 renal
[46] = test system: 786-0 renal
[47] = test system: HCT-116 colon
[48] = test system: SK-MEL-28 melanoma
[49] = test system: SNB-75 CNS
[50] = test system: SW-620 colon
[51] = test system: MOLT-4 leukemia
[52] = test system: MALME-3M melanoma
[53] = test system: SF-295 CNS
[54] = test system: NCI-H23 lung
[55] = test system: SF-268 CNS
[56] = test system: SF-539 CNS
[57] = test system: A498 renal
[58] = test system: NCI-H522 lung

Compound: CC1(C)C(O)OC(O)C1(C)C (stereo unspecified)
- TGI [1]: > 100 µM
- TGI [2]: > 100 µM
- TGI [3]: > 100 µM
- TGI [4]: > 100 µM
- TGI [5]: > 100 µM
- TGI [6]: > 100 µM
- TGI [7]: > 100 µM
- TGI [8]: > 100 µM
- TGI [9]: > 100 µM
- TGI [10]: 94.6 µM
- TGI [11]: > 100 µM
- TGI [12]: > 100 µM
- TGI [13]: > 100 µM
- TGI [14]: > 100 µM
- TGI [15]: > 100 µM
- TGI [16]: > 100 µM
- TGI [17]: > 100 µM
- TGI [18]: > 100 µM
- TGI [19]: > 100 µM
- TGI [20]: > 100 µM
- TGI [21]: > 100 µM
- TGI [22]: > 100 µM
- TGI [23]: > 100 µM
- TGI [24]: > 100 µM
- TGI [25]: > 100 µM
- TGI [26]: > 100 µM
- TGI [27]: > 100 µM
- TGI [28]: > 100 µM
- TGI [29]: > 100 µM
- TGI [30]: > 100 µM
- TGI [31]: > 100 µM
- TGI [32]: > 100 µM
- TGI [33]: > 100 µM
- TGI [34]: > 100 µM
- TGI [35]: > 100 µM
- TGI [36]: > 100 µM
- TGI [37]: > 100 µM
- TGI [38]: > 100 µM
- TGI [39]: > 100 µM
- TGI [40]: > 100 µM
- TGI [41]: > 100 µM
- TGI [42]: > 100 µM
- TGI [43]: > 100 µM
- TGI [44]: > 100 µM
- TGI [45]: > 100 µM
- TGI [46]: > 100 µM
- TGI [47]: > 100 µM
- TGI [48]: > 100 µM
- TGI [49]: > 100 µM
- TGI [50]: > 100 µM
- TGI [51]: > 100 µM
- TGI [52]: > 100 µM
- TGI [53]: > 100 µM

Compound: CCOC(=O)C1N(S(=O)(=O)c2ccc(C)cc2)CCC12C(c1ccc(OC)c(OC)c1)=Nc1ccccc12 (stereo unspecified)
- TGI [1]: > 100 µM
- TGI [3]: > 100 µM
- TGI [4]: > 100 µM
- TGI [5]: > 100 µM
- TGI [6]: > 100 µM
- TGI [7]: > 100 µM
- TGI [54]: > 100 µM
- TGI [8]: > 100 µM
- TGI [9]: > 100 µM
- TGI [10]: > 100 µM
- TGI [12]: > 100 µM
- TGI [13]: > 100 µM
- TGI [14]: > 100 µM
- TGI [15]: > 100 µM
- TGI [16]: > 100 µM
- TGI [17]: > 100 µM
- TGI [18]: > 100 µM
- TGI [19]: > 100 µM
- TGI [55]: > 100 µM
- TGI [56]: > 100 µM
- TGI [57]: > 100 µM
- TGI [20]: > 100 µM
- TGI [21]: > 100 µM
- TGI [22]: > 100 µM
- TGI [23]: > 100 µM
- TGI [24]: > 100 µM
- TGI [25]: > 100 µM
- TGI [26]: > 100 µM
- TGI [27]: > 100 µM
- TGI [28]: > 100 µM
- TGI [29]: > 100 µM
- TGI [30]: > 100 µM
- TGI [31]: > 100 µM
- TGI [32]: > 100 µM
- TGI [33]: > 100 µM
- TGI [34]: > 100 µM
- TGI [35]: > 100 µM
- TGI [36]: > 100 µM
- TGI [37]: > 100 µM
- TGI [38]: > 100 µM
- TGI [39]: > 100 µM
- TGI [40]: > 100 µM
- TGI [41]: > 100 µM
- TGI [42]: > 100 µM
- TGI [43]: > 100 µM
- TGI [44]: > 100 µM
- TGI [45]: > 100 µM
- TGI [46]: > 100 µM
- TGI [47]: > 100 µM
- TGI [48]: > 100 µM
- TGI [49]: > 100 µM
- TGI [50]: > 100 µM
- TGI [52]: > 100 µM
- TGI [53]: > 100 µM
- TGI [58]: > 100 µM

Compound: C[PH+](C)C.C[PH+](C)C.[Au]
- TGI [1]: 34.4 µM
- TGI [2]: 13.6 µM
- TGI [3]: 20.8 µM
- TGI [4]: 41.9 µM
- TGI [5]: 25.4 µM
- TGI [6]: 13.4 µM
- TGI [7]: 7.8 µM
- TGI [54]: 11.2 µM
- TGI [8]: 15.2 µM
- TGI [9]: 19 µM
- TGI [10]: 2.89 µM
- TGI [11]: 6.21 µM
- TGI [12]: 2.51 µM
- TGI [13]: 52.6 µM
- TGI [14]: 6.58 µM
- TGI [15]: 68.7 µM
- TGI [16]: 47.8 µM
- TGI [17]: 7.45 µM
- TGI [18]: 13.1 µM
- TGI [19]: 10.4 µM
- TGI [55]: 15.2 µM
- TGI [56]: 24.6 µM
- TGI [20]: 10.6 µM
- TGI [21]: > 60.6 µM
- TGI [22]: 18 µM
- TGI [23]: 4.98 µM
- TGI [24]: 15.7 µM
- TGI [25]: > 100 µM
- TGI [26]: > 68.4 µM
- TGI [27]: > 34.2 µM
- TGI [28]: 24.5 µM
- TGI [29]: 3.48 µM
- TGI [30]: 35.4 µM
- TGI [31]: > 90.2 µM
- TGI [32]: 12.3 µM
- TGI [33]: 98 µM
- TGI [34]: 18.2 µM
- TGI [35]: 28.1 µM
- TGI [36]: 11.2 µM
- TGI [37]: 35.7 µM
- TGI [38]: 10.1 µM
- TGI [39]: > 100 µM
- TGI [40]: 21.2 µM
- TGI [41]: 15.6 µM
- TGI [42]: 24.9 µM
- TGI [43]: 29.3 µM
- TGI [44]: 54.8 µM
- TGI [45]: 32.8 µM
- TGI [46]: 10.9 µM
- TGI [47]: 27.7 µM
- TGI [48]: 8.29 µM
- TGI [49]: 30.1 µM
- TGI [50]: 9.22 µM
- TGI [51]: 13.9 µM
- TGI [52]: 4.02 µM
- TGI [53]: > 56.7 µM
- GI50 [58]: 0.247 µM
- TGI [58]: 0.771 µM
